The source of these data is patent US20250059188A1, “ARYLSULPHONAMIDE COMPOUNDS” (Anaxis Pharma Pty Ltd, priority 2021, published 2025).

pIC50, pKd: −log10 of the molar value.

The test system of assay [1] is U937 cells. Nature of the assay: Counter screen: U937 cell viability without TSQ cocktail (off-target effect). The arrangement: species or system human. The note with it: Homo sapiens, U-937, compound without TSQ cocktail, read-out: Off-target effect (IC50 cell-based assay). An outline of the steps:
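Off-target viability counter screen: compounds titrated 36 μM down 1:3 over 10 points (0.3% DMSO) on 20,000 U937 cells/well, no TNF/Smac mimetic/Q-VD-OPh added, 48 h incubation. ATP-based CellTiter-Glo luminescence, four-parameter logistic IC50.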
On the technique in general: The purpose of a counterscreen is to sort out artefacts and off-target activity.

The target of assay [2] is human RIPK1 (Homo sapiens (Human), UniProt Q13546). Nature of the assay: KINOMEscan binding assay, human RIPK1. Conditions: equilibrium dissociation constant. In short, it runs like this: (§1)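 Compound dilutions (11 points, 3-fold, mostly from 30,000 nM, 1% DMSO final) competed with immobilized ligand for DNA- or phage-tagged protein, and bead-bound protein was measured by qPCR. Kd values came from Hill-equation fits with slope −1 (Levenberg-Marquardt).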
human RIPK1, sequence (Q13546 whole entry): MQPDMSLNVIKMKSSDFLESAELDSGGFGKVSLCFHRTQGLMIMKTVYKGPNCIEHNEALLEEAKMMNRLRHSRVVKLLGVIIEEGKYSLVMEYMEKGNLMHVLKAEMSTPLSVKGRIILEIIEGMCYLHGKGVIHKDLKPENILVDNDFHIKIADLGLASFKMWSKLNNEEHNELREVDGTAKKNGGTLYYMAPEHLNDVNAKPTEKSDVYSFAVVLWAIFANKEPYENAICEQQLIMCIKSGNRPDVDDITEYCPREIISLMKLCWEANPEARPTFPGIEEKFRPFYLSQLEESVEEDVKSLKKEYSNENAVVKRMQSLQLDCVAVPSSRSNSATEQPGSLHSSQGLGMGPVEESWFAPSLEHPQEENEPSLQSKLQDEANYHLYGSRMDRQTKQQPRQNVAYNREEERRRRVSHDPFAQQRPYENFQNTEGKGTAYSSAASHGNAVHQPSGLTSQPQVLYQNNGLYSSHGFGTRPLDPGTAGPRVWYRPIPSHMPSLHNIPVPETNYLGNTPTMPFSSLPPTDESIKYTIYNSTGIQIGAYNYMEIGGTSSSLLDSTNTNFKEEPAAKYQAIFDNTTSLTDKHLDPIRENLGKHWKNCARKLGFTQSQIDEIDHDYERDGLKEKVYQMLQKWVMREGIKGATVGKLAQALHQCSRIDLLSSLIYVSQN

The target in assay [3] is human RIPK3 (Homo sapiens (Human), UniProt Q9Y572). Nature of the assay: KINOMEscan binding assay, human RIPK3. The note with it: equilibrium dissociation constant. An outline of the steps: as §1
human RIPK3, sequence (Q9Y572 whole entry): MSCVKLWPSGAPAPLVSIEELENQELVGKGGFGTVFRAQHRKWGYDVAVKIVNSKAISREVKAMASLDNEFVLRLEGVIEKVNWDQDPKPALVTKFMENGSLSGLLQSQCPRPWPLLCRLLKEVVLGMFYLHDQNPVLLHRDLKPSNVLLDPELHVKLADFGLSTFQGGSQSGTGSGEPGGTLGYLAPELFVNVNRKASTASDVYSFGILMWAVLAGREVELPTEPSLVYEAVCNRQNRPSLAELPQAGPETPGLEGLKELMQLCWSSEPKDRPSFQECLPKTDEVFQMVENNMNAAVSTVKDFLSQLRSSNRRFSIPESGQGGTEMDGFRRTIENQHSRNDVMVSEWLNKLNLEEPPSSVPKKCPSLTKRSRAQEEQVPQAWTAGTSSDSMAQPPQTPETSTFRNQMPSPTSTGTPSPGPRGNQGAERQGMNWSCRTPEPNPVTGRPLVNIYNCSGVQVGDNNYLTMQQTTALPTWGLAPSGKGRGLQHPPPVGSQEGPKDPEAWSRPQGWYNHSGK
Assay [4] deals with U937 human histiocytic leukemia cell line. Nature of the assay: Inhibition of TSQ induced necroptosis in U937 cells (CellTitre-Glo). Conditions: Homo sapiens, U-937, TSQ cocktail (TNF, Smac mimetic, Q-VD-OPh), 48 hours, read-out: Inhibition of TSQ-induced necroptosis (IC50 cell-based assay). An outline of the steps:
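Necroptosis was induced with TNF-Fc (100 ng/ml), Smac mimetic (500 nM) and Q-VD-OPh (10 μM) in 20000 U937 cells/well exposed to a 10-point, 3-fold compound series (top 36 μM, 0.3% DMSO). ATP luminescence read after 48 h; 4-parameter fit gave IC50. Parallel TSQ-free wells assessed compound toxicity.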

One may read the pIC50 as −log10 of the IC50, conventionally taken in molar units. As usually defined, the pKd is the negative decadic logarithm of the Kd, by convention in mol/L. A higher pKd goes with a small Kd. With `C[C@H](Oc1cc(-c2nn(C)c3c(-c4cnn(C5CCC(F)(F)C5)c4)cnc(N)c23)ccc1NS(=O)(=O)C(F)F)c1ccc(F)cc1` (stereo partly drawn) [Compound 120, N-(4-{4-amino-7-[1-(3,3-difluorocyclopentyl)-1H-pyrazol-4-yl]-1-methyl-1H-pyrazolo[4,3-c]pyridin-3-yl}-2-[(1S)-1-(4-fluorophenyl)ethoxy]phenyl)-1,1-difluoromethanesulfonamide], the pIC50 in assay [1] was less than 5.00; in assay [4] it was greater than 8.00. For the same molecule, the pKd in assay [2] and in assay [3] was less than 5.00 in each case.
Take `C[C@@H](Oc1cc(-c2nn(C)c3c(-c4cnn(C5CCOCC5)c4)cnc(N)c23)ccc1NS(=O)(=O)C(F)F)c1ccc(F)cc1` [Compound 121, (R)-N-(4-(4-amino-1-methyl-7-(1-(tetrahydro-2H-pyran-4-yl)-1H-pyrazol-4-yl)-1H-pyrazolo[4,3-c]pyridin-3-yl)-2-(1-(4-fluorophenyl)ethoxy)phenyl)-1,1-difluoromethanesulfonamide]: the pIC50 is less than 5.00 in assay [1] and 6.00 to 8.00 in assay [4]. In addition, the pKd in assay [2] and in assay [3] was less than 5.00 each time.
In the case of `C[C@H](Oc1cc(-c2nn(C)c3c(-c4cnn(C5CCOCC5)c4)cnc(N)c23)ccc1NS(=O)(=O)C(F)F)c1cccc(Cl)c1` [Compound 122, (S)-N-(4-(4-amino-1-methyl-7-(1-(tetrahydro-2H-pyran-4-yl)-1H-pyrazol-4-yl)-1H-pyrazolo[4,3-c]pyridin-3-yl)-2-(1-(3-chlorophenyl)ethoxy)phenyl)-1,1-difluoromethanesulfonamide], the values for the pIC50 in assay [1] and in assay [4] were less than 5.00 and 6.00 to 8.00, respectively. Also, the pKd in assay [2] and in assay [3] was less than 5.00 each time.
For the molecule `C[C@H](Oc1cc(-c2nn(C)c3c(-c4cnn(CCC(F)(F)F)c4)cnc(N)c23)ccc1NS(=O)(=O)C(F)F)c1ccc(F)cc1` [Compound 131, (S)-N-(4-(4-amino-1-methyl-7-(1-(3,3,3-trifluoropropyl)-1H-pyrazol-4-yl)-1H-pyrazolo[4,3-c]pyridin-3-yl)-2-(1-(4-fluorophenyl)ethoxy)phenyl)-1,1-difluoromethanesulfonamide], the values for the pIC50 in assay [1] and in assay [4] were less than 5.00 and 6.00 to 8.00, respectively. Further, the pKd in assay [2] and in assay [3] was less than 5.00 each time.
Regarding `Cn1nc(-c2ccc(NS(=O)(=O)C(F)F)c(OCc3ccc(Cl)c(F)c3)c2)c2c(N)ncc(-c3cnn(C4CCOCC4)c3)c21` [Compound 132, N-(4-(4-amino-1-methyl-7-(1-(tetrahydro-2H-pyran-4-yl)-1H-pyrazol-4-yl)-1H-pyrazolo[4,3-c]pyridin-3-yl)-2-((4-chloro-3-fluorobenzyl)oxy)phenyl)-1,1-difluoromethanesulfonamide], the values for the negative-log IC50 (pIC50) in assay [1] and in assay [4] were less than 5.00 and 6.00 to 8.00, respectively. The pKd in assay [2] and in assay [3] was less than 5.00 each time.
`COCC(Oc1cc(-c2nn(C)c3c(-c4cnn(C5CCN(C)CC5)c4)cnc(N)c23)ccc1NS(=O)(=O)C(F)F)c1ccc(F)cc1` (stereo not drawn) [Compound 139, N-(4-(4-amino-1-methyl-7-(1-(1-methylpiperidin-4-yl)-1H-pyrazol-4-yl)-1H-pyrazolo[4,3-c]pyridin-3-yl)-2-(1-(4-fluorophenyl)-2-methoxyethoxy)phenyl)-1,1-difluoromethanesulfonamide]: the pIC50 in assay [1] was less than 5.00; in assay [4], 6.00 to 8.00. For the same molecule, the pKd in assay [2] and in assay [3] was less than 5.00 each time.
On to `CC(n1cc(-c2cnc(N)c3c(-c4ccc(NS(=O)(=O)C(F)F)c(O[C@@H](C)c5ccc(F)cc5)c4)nn(C)c23)cn1)C(F)(F)F` (stereo partly drawn) [Compound 142, N-(4-(4-amino-1-methyl-7-(1-(1,1,1-trifluoropropan-2-yl)-1H-pyrazol-4-yl)-1H-pyrazolo[4,3-c]pyridin-3-yl)-2-((S)-1-(4-fluorophenyl)ethoxy)phenyl)-1,1-difluoromethanesulfonamide], for which the negative-log IC50 (pIC50) is less than 5.00 in assay [1] and 6.00 to 8.00 in assay [4]. Moreover, the negative-log Kd (pKd) in assay [2] and in assay [3] was less than 5.00 each time.
For the molecule `C[C@H](Oc1cc(-c2nn(C)c3c(-c4cnn(C5CCN(C)C6(CC6)C5)c4)cnc(N)c23)ccc1NS(=O)(=O)C(F)F)c1ccc(F)cc1` (stereo partly drawn) [Compound 145, N-(4-(4-amino-1-methyl-7-(1-(4-methyl-4-azaspiro[2.5]octan-7-yl)-1H-pyrazol-4-yl)-1H-pyrazolo[4,3-c]pyridin-3-yl)-2-((S)-1-(4-fluorophenyl)ethoxy)phenyl)-1,1-difluoromethanesulfonamide], the pIC50 in assay [1] is less than 5.00; in assay [4] it was greater than 8.00. Also, the pKd in assay [2] and in assay [3] was less than 5.00 throughout.
`C[C@H](Oc1cc(-c2nn(C)c3c(-c4cnn(C5CCC(F)(F)CC5)c4)cnc(N)c23)ccc1NS(=O)(=O)C(F)F)c1ccc(F)cc1` [Compound 146, (S)-N-(4-(4-amino-7-(1-(4,4-difluorocyclohexyl)-1H-pyrazol-4-yl)-1-methyl-1H-pyrazolo[4,3-c]pyridin-3-yl)-2-(1-(4-fluorophenyl)ethoxy)phenyl)-1,1-difluoromethanesulfonamide]: the pIC50 in assay [1] is less than 5.00; in assay [4], greater than 8.00. The pKd in assay [2] and in assay [3] was less than 5.00 throughout.
In the case of `CC1C(n2cc(-c3cnc(N)c4c(-c5ccc(NS(=O)(=O)C(F)F)c(O[C@@H](C)c6ccc(F)cc6)c5)nn(C)c34)cn2)CN1C` (stereo partly drawn) [Compound 147, N-(4-(4-amino-7-(1-(1,2-dimethylazetidin-3-yl)-1H-pyrazol-4-yl)-1-methyl-1H-pyrazolo[4,3-c]pyridin-3-yl)-2-((S)-1-(4-fluorophenyl)ethoxy)phenyl)-1,1-difluoromethanesulfonamide], the pIC50 in assay [1] was less than 5.00; in assay [4], 6.00 to 8.00. Moreover, the pKd in assay [2] and in assay [3] was less than 5.00 in each case.
`C[C@H](Oc1cc(-c2nn(C)c3c(-c4cnn(C5CCN(C)C(C(F)(F)F)C5)c4)cnc(N)c23)ccc1NS(=O)(=O)C(F)F)c1ccc(F)cc1` (stereo partly drawn) [Compound 148, N-(4-(4-amino-1-methyl-7-(1-(1-methyl-2-(trifluoromethyl)piperidin-4-yl)-1H-pyrazol-4-yl)-1H-pyrazolo[4,3-c]pyridin-3-yl)-2-((S)-1-(4-fluorophenyl)ethoxy)phenyl)-1,1-difluoromethanesulfonamide]: the figures for the pIC50 in assay [1] and in assay [4] were less than 5.00 and greater than 8.00, respectively. Further, the pKd in assay [2] and in assay [3] was less than 5.00 each time.
As to `C[C@H](Oc1cc(-c2nn(C)c3c(-c4cnn(C5CC6CCC(C5)N6CC(F)(F)F)c4)cnc(N)c23)ccc1NS(=O)(=O)C(F)F)c1ccc(F)cc1` (stereo partly drawn) [Compound 153, N-(4-(4-amino-1-methyl-7-(1-(8-(2,2,2-trifluoroethyl)-8-azabicyclo[3.2.1]octan-3-yl)-1H-pyrazol-4-yl)-1H-pyrazolo[4,3-c]pyridin-3-yl)-2-((S)-1-(4-fluorophenyl)ethoxy)phenyl)-1,1-difluoromethanesulfonamide], the pIC50 is less than 5.00 in assay [1] and 6.00 to 8.00 in assay [4]. Besides, the negative-log Kd (pKd) in assay [2] and in assay [3] was less than 5.00 each time.
Regarding `Cc1c(-c2cnc(N)c3c(-c4ccc(NS(=O)(=O)C(F)F)c(O[C@@H](C)c5ccc(F)cc5)c4)nn(C)c23)cnn1C1CCN(C)C(C)(C)C1` (stereo partly drawn) [Compound 157, N-(4-(4-amino-1-methyl-7-(5-methyl-1-(1,2,2-trimethylpiperidin-4-yl)-1H-pyrazol-4-yl)-1H-pyrazolo[4,3-c]pyridin-3-yl)-2-((S)-1-(4-fluorophenyl)ethoxy)phenyl)-1,1-difluoromethanesulfonamide], the pIC50 was less than 5.00 in assay [1] and 6.00 to 8.00 in assay [4]. The negative-log Kd (pKd) in assay [2] and in assay [3] was less than 5.00 each time.
In the case of `C[C@H](Oc1cc(-c2nn(C)c3c(-c4cnn(C5CCN(C)C(C)(C)C5)c4)cnc(N)c23)ccc1NS(=O)(=O)C(F)F)c1ccc(Cl)cc1` (stereo partly drawn) [Compound 159, N-(4-(4-amino-1-methyl-7-(1-(1,2,2-trimethylpiperidin-4-yl)-1H-pyrazol-4-yl)-1H-pyrazolo[4,3-c]pyridin-3-yl)-2-((S)-1-(4-chlorophenyl)ethoxy)phenyl)-1,1-difluoromethanesulfonamide], the values for the pIC50 in assay [1] and in assay [4] were less than 5.00 and greater than 8.00, respectively. Moreover, the pKd in assay [2] and in assay [3] was less than 5.00 each time.
In the case of `C[C@H](Oc1cc(-c2nn(C)c3c(-c4cnn(C5CC(C)(C)N(C)C(C)(C)C5)c4)cnc(N)c23)ccc1NS(=O)(=O)C(F)F)c1ccc(F)cc1` [Compound 162, (S)-N-(4-(4-amino-1-methyl-7-(1-(1,2,2,6,6-pentamethylpiperidin-4-yl)-1H-pyrazol-4-yl)-1H-pyrazolo[4,3-c]pyridin-3-yl)-2-(1-(4-fluorophenyl)ethoxy)phenyl)-1,1-difluoromethanesulfonamide], the figures for the pIC50 in assay [1] and in assay [4] were less than 5.00 and greater than 8.00, respectively. Also, the pKd in assay [2] and in assay [3] was less than 5.00 in each case.
